Assay results from US11584722B2, “Substituted imidazole salt compounds, preparation method thereof, pharmaceutical composition thereof and application thereof” (Xiamen Vivohealths Technology Co., Ltd., priority 2017, dated 2023).

Molecular target: T1, aldolase A (Homo sapiens, UniProt P04075)
T1 sequence (P04075 1-364): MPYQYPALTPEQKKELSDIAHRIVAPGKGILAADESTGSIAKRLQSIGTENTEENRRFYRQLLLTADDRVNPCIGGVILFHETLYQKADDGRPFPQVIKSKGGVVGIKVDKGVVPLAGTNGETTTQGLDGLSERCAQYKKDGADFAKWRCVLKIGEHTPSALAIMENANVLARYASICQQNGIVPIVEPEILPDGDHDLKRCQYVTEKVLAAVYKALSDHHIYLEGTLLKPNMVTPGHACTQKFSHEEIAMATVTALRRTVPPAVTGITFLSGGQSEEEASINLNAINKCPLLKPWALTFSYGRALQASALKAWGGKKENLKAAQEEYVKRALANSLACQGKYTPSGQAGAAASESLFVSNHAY
Experiment: Activity assay at protein level: aldolase-catalyzed degradation of fructose-1,6-biphosphate, coupled triose phosphate isomerase/glycerol-3-phosphate dehydrogenase method
Format: biochemical
Conditions: test concentration of compound 100 μM, FBP 500 μM, 37° C., read-out: Inhibition rate (%) of aldolase activity
Experimental: The inhibition on aldolase activity of a compound was evaluated by its inhibition on the rate of aldolase-catalyzed degradation of the substrate fructose-1,6-biphosphate (FBP). Method for conjugation of triose phosphate isomerase/glycerol-3-phosphate dehydrogenase [Racker, E. (1952) J. Biol. Chem. 196, 347-351] was specifically used for biochemical activity assay (Table 3).
The specific method was as follows:
(1) About 250 ng of aldolase A was dissolved in 30 μL of water, added to the bottom of a 96-well plate of quartz, and a compound (dissolved in DMSO, not exceeding 1% of the total reaction volume) was added to the aldolase A solution, followed by shaking and mixing, and incubation for 30 min at room temperature; […]
(2) 70 μL of an enzyme reaction system (its formulation was given below) was added, and immediately put into a microplate reader (SpectraMax M5, Molecular Devices), to carry out reaction at 37° C. At the same time, the absorbance at 340 nm was measured every 30 s, and a total of 61 absorbance values were obtained for each well. The absorbance value linearly changed with time, and the slope was the enzyme activity of aldolase in the well. The specific value was calculated by SoftMax Pro 5.4.1; […]
a. enzyme reaction buffer (50 mM TEA-HCl, pH 7.4, 10 mM EDTA) […]
d. triose phosphate isomerase (about 20 U) e. glycerol-3-phosphate dehydrogenase (about 2 U)
(3) Two parallel experiments were set for each group, with DMSO having a final concentration of 1% as the blank control, and the final concentration of compound being 100 μM.

SMILES	inhibition at 100 µM [%]
CCCn1cc[n+](Cc2cc(F)ccc2OC)c1C [IA-10]	0.06
CCCCCCCCCCCCCCCCn1c(C)[n+](Cc2c(F)cccc2Cl)c2ccccc21 [IIA-1]	49.9
CCn1cc[n+](Cc2c(Cl)cccc2Cl)c1C [IA-7]	88.4
CCn1cc[n+](Cc2cc(F)ccc2OC)c1C [IA-6]	83.4
Cc1n(C(C)C)cc[n+]1Cc1c(Cl)cccc1Cl [IA-14]	5.06
